From PubChem BioAssay (NCI)
Values joined by “and” are separate entries in the source; they are usually repeats but may differ in a detail not shown here. Equal entries are not always repeated.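 Five compound concentrations were applied to cells in 96-well plates for 48 hours; endpoints were derived by simple linear interpolation of the resulting dose-response curve. The concentration for 50% growth inhibition is given as GI50. TGI is the concentration that stops growth completely.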

What was measured:
Experiment in all cases: NCI tumour cell line growth inhibition, 48 h
SNB-78 CNS = system: SNB-78 CNS
KM20L2 colon = system: KM20L2 colon
RXF-631 renal = system: RXF-631 renal
DMS 114 small cell lung = system: DMS 114 small cell lung
LXFL 529 NSCLC = system: LXFL 529 NSCLC
DLD-1 colon = system: DLD-1 colon
M19-MEL melanoma = system: M19-MEL melanoma
MDA-N = system: MDA-N
XF 498 CNS = system: XF 498 CNS

Row | Compound | TGI (SNB-78 CNS) [µM] | TGI (KM20L2 colon) | TGI (RXF-631 renal) | TGI (DMS 114 small cell lung) | TGI (LXFL 529 NSCLC) | TGI (DLD-1 colon) | TGI (M19-MEL melanoma) | TGI (MDA-N) [µM] | TGI (XF 498 CNS) [µM] | further results
1 | NC1=NN(c2ccccc2)C(=O)C1C(=O)C(=O)Nc1ccc(Cl)cc1 (configuration not stated) | > 100 | > 100 µM | > 100 µM | > 100 µM | > 100 µM | > 100 µM | > 100 µM |  |  | 
2 | CC[C@@]1(O)C(=O)OCc2c1cc1n(c2=O)Cc2cc3cc(Cl)ccc3nc2-1 |  | 0.144 µM and 0.461 µM |  |  | 2.22 µM | > 100 µM | 0.224 µM and 0.19 µM | 0.374 |  | GI50 (SNB-78 CNS): 0.0711 µM and 0.0581 µM; GI50 (KM20L2 colon): 0.00997 µM and 0.0271 µM; GI50 (DMS 114 small cell lung): < 0.001 µM; GI50 (LXFL 529 NSCLC): 0.108 µM; GI50 (MDA-N): 0.0286 µM; GI50 (DLD-1 colon): 0.108 µM and 0.346 µM; GI50 (M19-MEL melanoma): 0.0167 µM and 0.0195 µM
3 | Nc1n[n+]([O-])c2cc([N+](=O)[O-])ccc2[n+]1[O-] |  |  |  |  |  |  |  | 4.93 |  | 
4 | C#CCN(N=O)C(=O)NC(CCCCNC(=O)OCc1ccccc1)C(=O)OCc1ccccc1 (configuration not stated) | > 100 | > 100 µM |  | 44 µM | 31.7 µM | 42.7 µM | > 100 µM |  |  | 
5 | O=S(=O)(C1=CC(S(=O)(=O)c2ccccc2)COC1)c1ccccc1 (configuration not stated) |  |  |  | > 100 µM | > 100 µM | > 100 µM | > 100 µM |  | > 100 | 
6 | N#CCCN(CCC#N)c1ccc(/C=C(/NC(=O)c2cc([N+](=O)[O-])ccc2Cl)C(=O)N=[N+]=[N-])cc1 | > 100 | > 100 µM | > 100 µM | > 100 µM | > 100 µM | > 100 µM | > 100 µM |  |  | 
7 | O/N=C1/CCC/C1=C\c1ccccc1 | > 100 | > 100 µM |  |  | > 100 µM | > 100 µM |  |  | > 100 | 
8 | CC(=O)OC1C[C@H]2C(OC(=O)c3ccccc3)C3C4(OC(C)=O)COC4C[C@H](OC(C)=O)[C@@]3(C)C(OC(C)=O)[C@H](OC(C)=O)C(=C1C)C2(C)C (some centres not stated) | > 100 | > 100 µM |  | > 100 µM | > 100 µM | > 100 µM | > 100 µM |  | 63.8 | 
9 | Nc1cn(C2OC(CC(c3ccccc3)(c3ccccc3)c3ccccc3)C(O)C2O)c(=O)[nH]c1=O (configuration not stated) | > 100 | 42.1 µM | > 100 µM | 35.4 µM | 91.8 µM | 54.6 µM | 34.9 µM |  | 46.5 | 
10 | Cc1cccc(C(C)(C)C)c1NC(=O)C(C#N)C1=C(Cl)C(=O)c2ccccc2C1=O (configuration not stated) | 33.1 | 38.4 µM |  | 38.3 µM | 29.2 µM | 33.4 µM |  | 27.4 | 29.4 | 
11 | OCC1NC(COC2OC(CO)C(O)C(O)C2O)C(O)C(O)C1O (configuration not stated) |  |  |  |  |  |  |  | > 100 |  | 
12 | O=C(CCc1nc(=S)[nH][nH]1)Nc1cc(Cl)ccc1Cl |  | > 100 µM | > 100 µM | > 100 µM | > 100 µM | > 100 µM | > 100 µM |  |  | 
13 | NC(CCSCC(F)(F)F)C(=O)O (configuration not stated) | > 100 | > 100 µM |  | > 100 µM | > 100 µM | > 100 µM | > 100 µM |  |  | 
14 | C[C@H]1CCC/C=C/C2CC(OC(=O)CN(C)C)CC2C(OC(=O)CN(C)C)/C=C/C(=O)O1 (some centres not stated) | > 100 | 0.979 µM |  | > 30.2 µM | 8.4 µM | > 37.1 µM | 0.211 µM | > 100 | 1.42 | GI50 (SNB-78 CNS): 0.227 µM; GI50 (KM20L2 colon): 0.266 µM; GI50 (DMS 114 small cell lung): 0.479 µM; GI50 (LXFL 529 NSCLC): 0.417 µM; GI50 (MDA-N): 0.427 µM; GI50 (DLD-1 colon): 0.443 µM; GI50 (M19-MEL melanoma): 0.0406 µM; GI50 (XF 498 CNS): 0.179 µM
15 | CC(=O)NNc1nc(C)c(C(=O)NNC(=O)C(=O)Nc2ccc(Cl)c([N+](=O)[O-])c2)s1 | > 100 | > 100 µM |  | > 100 µM | > 100 µM |  | > 100 µM |  | > 100 | 
16 | O=C(CCC(=O)Nc1ccccc1C(F)(F)F)N/N=C1\C(=N\NC(=O)CCC(=O)Nc2ccccc2C(F)(F)F)C(c2ccc3c(c2)OCO3)Oc2ccccc21 (configuration not stated) | > 100 | > 100 µM | > 100 µM | > 22.3 µM |  | > 100 µM | > 100 µM |  | > 87.6 | 
17 | O=C(O)C1C2C=CC(O2)C1C(=O)NCc1cccnc1 (configuration not stated) |  |  |  |  |  |  |  | > 100 |  | 
18 | CCc1cccc(C(C)C)c1NC(=O)CC1Sc2ccccc2NC1=O (configuration not stated) | > 100 |  |  | > 100 µM | > 100 µM | > 100 µM | > 100 µM |  | > 100 | 
19 | N#Cc1ncc(C(Cl)Cl)nc1Cl |  |  |  |  |  |  |  | 3.07 |  | 
20 | Cc1noc2cccc(O)c12 | > 100 | > 100 µM |  | > 100 µM | > 100 µM | > 100 µM | > 100 µM |  | > 100 | 
21 | COc1ccc(C(c2ccccc2C(=O)O)c2ccc(OC)c3ccccc23)c2ccccc12 | 50.4 | 26.5 µM |  | 21.1 µM | 20.7 µM | 22.2 µM | 27.6 µM |  | 46.7 | 
22 | CCOC(=O)C1(CC(=O)O)CCCC1=O (configuration not stated) |  |  |  |  |  |  |  | > 100 |  | 
23 | O=C1c2c(O)cccc2C(C(=O)CCCCCC(=O)C2c3cccc(O)c3C(=O)c3c(O)cccc32)c2cccc(O)c21 |  | 13.1 µM and 47.6 µM | 7.98 µM and 13.6 µM | 1.29 µM and 9.22 µM | 2.78 µM and 14.2 µM | 8.88 µM and 16.7 µM | 2.5 µM and 9.2 µM |  | 1.2 | GI50 (SNB-78 CNS): 7.55 µM; GI50 (KM20L2 colon): 15.4 µM; GI50 (RXF-631 renal): 2.99 µM; GI50 (DMS 114 small cell lung): 3.16 µM; GI50 (LXFL 529 NSCLC): 7.58 µM; GI50 (DLD-1 colon): 7.67 µM; GI50 (M19-MEL melanoma): 2.4 µM

Row | Compound | TGI (SNB-78 CNS) [µM] | TGI (KM20L2 colon) | TGI (RXF-631 renal) | TGI (DMS 114 small cell lung) | TGI (LXFL 529 NSCLC) | TGI (DLD-1 colon) | TGI (M19-MEL melanoma) | TGI (MDA-N) [µM] | TGI (XF 498 CNS) [µM] | further results
24 | NC(Cc1ccccc1)C(=O)OCN1C(=O)C2C3C=CC(C2C1=O)C1C2C(=O)N(COC(=O)C(N)Cc4ccccc4)C(=O)C2C31 (configuration not stated) |  | 67.2 µM and 51.5 µM |  | 40.4 µM and 33.8 µM | 39.7 µM and 37.9 µM | 51.4 µM and 60.6 µM | 38.4 µM |  | 71.7 | GI50 (M19-MEL melanoma): 21.6 µM
25 | O=C(NCCCCCCCCCCCCNC(=O)c1cnc2ccccc2n1)c1cnc2ccccc2n1 | > 100 | > 100 µM | > 100 µM | > 100 µM | > 100 µM | > 100 µM | > 100 µM |  |  | 
26 | CC(Oc1cc2oc(=O)cc(-c3ccccc3)c2cc1Cl)C(=O)O (configuration not stated) | > 100 | > 100 µM | > 100 µM | > 100 µM | > 100 µM | > 100 µM | > 100 µM |  | > 100 | 
27 | C[C@@H](C1CC[C@H]2[C@@H]3[C@@H]4O[C@@H]4[C@@]4(O)CC=CC(=O)[C@]4(C)[C@H]3C[C@H](O)[C@]12C)[C@H]1C[C@]2(C)O[C@]2(C)C(=O)O1 (some centres not stated) |  |  |  |  |  |  |  | > 100 |  | 
28 | Cc1cc(=O)oc2c(C3=NN(C=O)C(c4ccccc4)C3)c(O)ccc12 (configuration not stated) | > 96 | > 100 µM | > 100 µM | > 100 µM | > 100 µM | > 100 µM | > 100 µM | > 100 | 42.1 | 
29 | c1ccc2c(c1)[nH]c1cnc3c4ncccc4[nH]c3c12 | > 100 | > 100 µM |  | > 100 µM | > 100 µM | > 100 µM | > 100 µM |  | > 100 | 
30 | O=C1OC(CC(=O)c2ccc(F)cc2)C(Cl)=C1Cl (configuration not stated) | > 100 |  |  | > 100 µM | 31.9 µM | 47.4 µM | > 100 µM |  | 46.8 | 
31 | NCCOc1ccc(/C(=C(/Cl)c2ccccc2)c2ccccc2)cc1 | 25 | 19.9 µM | 26.3 µM | 27.1 µM | 20 µM | 33.3 µM | 23.8 µM |  | 17.6 | 
32 | COC(=O)C(=O)C(CC(=O)Nc1cc(Cl)ccc1Cl)C(=O)OC (configuration not stated) | > 100 | > 100 µM |  | > 100 µM | > 100 µM |  |  |  |  | 
33 | CCOC(=O)c1oc2c(OC)ccc3c2c1CCC3 | > 100 | > 100 µM | > 100 µM | > 100 µM | > 100 µM | > 100 µM | > 100 µM |  | > 100 | 
34 | CCCCCC/C=C/C#CCCCCCCCC(=O)O |  |  |  |  |  |  |  | > 100 |  | 
35 | O=C(Nc1cccc(C(F)(F)F)c1)C(=O)C(C(=O)c1ccc(Cl)c(Cl)c1)C1OC(=O)c2ccccc21 (configuration not stated) | > 100 | > 100 µM | > 100 µM | 78.6 µM | > 100 µM | > 100 µM | 54 µM |  | > 100 | 
36 | C/C(=N\Nc1ccccc1)c1sc(-c2nc(C)c(/C(C)=N/Nc3ccccc3)s2)nc1C | > 100 |  |  | > 30.8 µM | > 82 µM | > 100 µM | > 85.2 µM |  | > 100 | 
37 | CCCCCCCCCCC(=O)CCCCCCC(=O)O | > 100 |  | 43.3 µM | 50.3 µM | 40.1 µM | 47.2 µM | 74.7 µM |  | 97.8 | 
38 | COc1cc(/C=C/C(=O)c2cccc3ccccc23)cc(OC)c1OC | 12.8 | 13.6 µM |  |  | 10.3 µM |  | 38.2 µM |  | 20.5 | 
39 | C=C1CCC2CC1C(C(=O)c1c[nH]c3ccccc13)=NC2(C)C (configuration not stated) |  |  |  |  |  |  |  | > 100 |  | 
40 | C/C(=C1/N=C(c2cc([N+](=O)[O-])ccc2Cl)N(c2ccc(Br)cc2)C1=O)c1ccc(N(CCC#N)CCC#N)cc1C | > 100 | > 100 µM | > 100 µM | 27.2 µM | > 100 µM | 32.2 µM | 92.3 µM |  | > 100 | 
41 | Cc1ccccc1NC(=O)CC1C(=O)Nc2ccccc2S1=O (configuration not stated) | > 100 | > 100 µM | > 100 µM | > 100 µM | > 100 µM | > 100 µM | > 100 µM |  | > 100 | 
42 | CC1CC(C[N+](=O)[O-])CC2(C1)OCCO2 (configuration not stated) | > 100 | > 100 µM |  | > 100 µM | > 100 µM | > 100 µM | > 100 µM |  |  | 
43 | O=C1/C(=C/c2cccnc2)SC(=S)N1Cc1ccco1 |  |  |  |  |  |  |  | 6.29 |  | 
44 | CC1=C(C(=O)Nc2cccc(Cl)c2)C(c2ccccc2O)C(C(=O)Nc2cccc(Cl)c2)=C(C)N1 | 57.2 | 37.7 µM |  | 54.6 µM | 39.3 µM | 33 µM | 40.6 µM |  |  | 
45 | N#CCc1c(F)c(F)c(F)c(F)c1F |  |  |  |  |  |  |  | > 100 |  | 
